Assay results published in patent publication US8586611B2 (priority 2005, dated 2013).

Legend:
Format in all cases: in vivo
Phytophthora infestans [1] = experiment: whole plant or invertebrate; settings: tomato late blight
Plasmopara viticola = experiment: Test B: grape downy mildew, spray 24 h after inoculation (disease rating, 100 = 100% disease control)
Summary of the method: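 This is a curative spray test, applied 24 h after inoculation. Compounds in 50/50 acetone–water with 250 ppm Trem 014 surfactant were sprayed to run-off on P. viticola-infected seedlings, with 200 ppm equating to 500 g/ha. Plants were kept 5 days in a 20 °C growth chamber, then 24 h humid, and scored 0–100 for disease control relative to controls.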

Phytophthora infestans [2] = experiment: whole plant or invertebrate; settings: tomato late blight; remark: listed apart in the source
[3] = test system: Erysiphe graminis f. sp. tritici; experiment: Test E: wheat powdery mildew, spray the day before inoculation (disease rating, 100 = 100% disease control)
Summary of the method: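 Protective test: spores of E. graminis f. sp. tritici dusted on wheat seedlings one day after run-off spraying of test suspension (acetone/water with 250 ppm surfactant; 200 ppm = 500 g/ha). Ratings after 7 days in growth chamber at 20° C, 100 = full control, 0 = none, relative to controls.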

[4] = spray the day before inoculation, compounds without asterisk (not 40 or 10 ppm)
[5] = spray 24 h after inoculation, compounds without asterisk (not 40 or 10 ppm)
[6] = spray 17 h after inoculation, compounds without asterisk (not 40 or 10 ppm)
[7] = spray the day before inoculation, tested at 40 ppm
[8] = spray 24 h after inoculation, tested at 40 ppm
[9] = spray 17 h after inoculation, tested at 40 ppm
[10] = spray the day before inoculation, tested at 10 ppm
[11] = spray 24 h after inoculation, tested at 10 ppm
[12] = spray 17 h after inoculation, tested at 10 ppm
[13] = sprayed the day before inoculation, tested at 10 ppm (**)
[14] = sprayed 24 h after inoculation, tested at 10 ppm (**)
[15] = sprayed 17 h after inoculation, tested at 10 ppm (**)
[16] = sprayed the day before inoculation, 7 days at 20° C., tested at 10 ppm (**)

SMILES | Test C disease rating (100 = 100% disease control, 0 = no disease control) (Phytophthora infestans [1]; [4]) | Test B disease rating (100 = 100% disease control, 0 = no disease control) (Plasmopara viticola; [5]) | Test D disease rating (100 = 100% disease control, 0 = no disease control) (Phytophthora infestans [2]; [6]) | Test E disease rating (100 = 100% disease control, 0 = no disease control) [3, 4] | further results
Cc1nc(C2CCN(C(=O)Cn3nc(C(F)(F)F)cc3C)CC2)sc1C(=O)N(C)[C@@H]1CCCc2ccccc21 [compound 227] | 63% | 44% | 0% | 0% | 
CCC1C=Cc2ccccc2C1N(C)C(=O)c1csc(C2CCN(C(=O)Cn3nc(C(F)(F)F)cc3C)CC2)n1 (stereo not drawn) [compound 228] | 100% | 88% | 99% | 0% | 
COC(=O)C1CC(N(C)C(=O)c2csc(C3CCN(C(=O)Cn4nc(C(F)(F)F)cc4C)CC3)n2)c2ccccc21 (stereo not drawn) [compound 229] | 100% | 97% | 90% | 0% | 
Cc1cc(C(F)(F)F)nn1CC(=O)N1CCC(c2nc(C(=O)N(C)C3c4ccccc4C=CC3C)cs2)CC1 (stereo not drawn) [compound 230] | 100% | 87% | 94% | 0% | 
Cc1cc(C(F)(F)F)nn1CC(=O)N1CCC(c2nc(C(=O)N(C)C3CC(CO)c4ccccc43)cs2)CC1 (stereo not drawn) [compound 235] | 100% | 94% | 99% | 0% | 
Cc1cc(C(F)(F)F)nn1CC(=O)N1CCC(c2nc(C(=O)N(C)C(C)(C)c3ccccc3)cs2)CC1 [compound 237] | 99% | 81% | 99% | 62% | 
CN(C(=O)c1csc(C2CCN(C(=O)Cn3nc(C(F)(F)F)cc3C(C)(C)C)CC2)n1)[C@@H]1CCCc2ccccc21 [compound 239] |  |  |  |  | Test C disease rating (100 = 100% disease control, 0 = no disease control) (Phytophthora infestans [1]; [7]): 57%; Test B disease rating (100 = 100% disease control, 0 = no disease control) (Plasmopara viticola; [8]): 63%; Test D disease rating (100 = 100% disease control, 0 = no disease control) (Phytophthora infestans [2]; [9]): 0%; Test E disease rating (100 = 100% disease control, 0 = no disease control) [3, 7]: 0%
CC(C)c1cc(C(F)(F)F)nn1CC(=O)N1CCC(c2nc(C(=O)N(C)[C@@H]3CCCc4ccccc43)cs2)CC1 [compound 240] |  |  |  |  | Test C disease rating (100 = 100% disease control, 0 = no disease control) (Phytophthora infestans [1]; [10]): 100%; Test B disease rating (100 = 100% disease control, 0 = no disease control) (Plasmopara viticola; [11]): 99%; Test D disease rating (100 = 100% disease control, 0 = no disease control) (Phytophthora infestans [2]; [12]): 99%; Test E disease rating (100 = 100% disease control, 0 = no disease control) [3, 10]: 0%
Cc1cc(C(F)(F)F)nn1CC(=O)N1CCCN(c2nc(C(=O)N(C)[C@@H]3CCCc4ccccc43)cs2)CC1 [compound 241] | 99% | 17% | 68% | 47% | 
Cc1cc(C(F)(F)F)nn1CC(=O)N1CCCN(c2nc(C(=O)N(C)[C@@H]3CCCc4ccccc43)cs2)CC1.Cl [compound 242] | 100% | 16% | 73% | 0% | 
Cc1ccccc1C(C)N(C)C(=O)c1csc(C2CCN(C(=O)Cn3nc(C(F)(F)F)cc3C)CC2)n1 (stereo not drawn) [compound 243] |  |  |  |  | Test C disease rating (100 = 100% disease control, 0 = no disease control) (Phytophthora infestans [1]; [7]): 86%; Test B disease rating (100 = 100% disease control, 0 = no disease control) (Plasmopara viticola; [8]): 91%; Test D disease rating (100 = 100% disease control, 0 = no disease control) (Phytophthora infestans [2]; [9]): 82%; Test E disease rating (100 = 100% disease control, 0 = no disease control) [3, 7]: 0%
COC(=O)[C@H](c1ccccc1)N(C)C(=O)c1csc(C2CCN(C(=O)Cn3nc(C(F)(F)F)cc3C)CC2)n1 [compound 244] | 99% | 100% | 93% | 0% | 
Cc1cc(C(F)(F)F)nn1CC(=O)N1CCC(c2nc(C(=O)N(C)[C@H](C(=O)O)c3ccccc3)cs2)CC1 [compound 245] | 47% | 0% | 0% | 0% | 
Cc1cc(C(F)(F)F)nn1CC(=O)N1CCC(c2nc(C(=O)N(C)[C@H](C(N)=O)c3ccccc3)cs2)CC1 [compound 247] | 90% | 0% | 17% | 0% | 
Cc1cc(C(F)(F)F)nn1CC(=O)N1CCC(c2nc(C(=O)N(C)Cc3ccccc3)cs2)CC1 [compound 248] | 100% | 88% | 80% | 53% | 
Cc1cc(C(F)(F)F)nn1CC(=O)N1CCC(c2nc(C(=O)N(C)C(C)c3ccccc3F)cs2)CC1 (stereo not drawn) [compound 250] |  |  |  |  | Test C disease rating (100 = 100% disease control, 0 = no disease control) (Phytophthora infestans [1]; [10]): 97%; Test B disease rating (100 = 100% disease control, 0 = no disease control) (Plasmopara viticola; [11]): 97%; Test D disease rating (100 = 100% disease control, 0 = no disease control) (Phytophthora infestans [2]; [12]): 71%; Test E disease rating (100 = 100% disease control, 0 = no disease control) [3, 10]: 0%
Cc1cc(C(F)(F)F)nn1CC(=O)N1CCC(c2nc(C(=O)N(C)C(C)c3ccccc3Cl)cs2)CC1 (stereo not drawn) [compound 251] |  |  |  |  | Test C disease rating (100 = 100% disease control, 0 = no disease control) (Phytophthora infestans [1]; [10]): 100%; Test B disease rating (100 = 100% disease control, 0 = no disease control) (Plasmopara viticola; [11]): 100%; Test D disease rating (100 = 100% disease control, 0 = no disease control) (Phytophthora infestans [2]; [12]): 97%; Test E disease rating (100 = 100% disease control, 0 = no disease control) [3, 10]: 0%
Cc1cc(C(F)(F)F)nn1CC(=O)N1CCC(c2nc(C(=O)N(C)C(C)c3ccccc3Br)cs2)CC1 (stereo not drawn) [compound 252] |  |  |  |  | Test C disease rating (100 = 100% disease control, 0 = no disease control) (Phytophthora infestans [1]; [13]): 99; Test B disease rating (100 = 100% disease control, 0 = no disease control) (Plasmopara viticola; [14]): 99; Test D disease rating (100 = 100% disease control, 0 = no disease control) (Phytophthora infestans [2]; [15]): 85; Test E disease rating (100 = 100% disease control, 0 = no disease control) [3, 16]: 19
Cc1cc(C(F)(F)F)nn1CC(=O)N1CCC(c2nc(C(=O)N(C)C(c3ccc(Cl)cc3)C(F)(F)F)cs2)CC1 (stereo not drawn) [compound 253] |  |  |  |  | Test C disease rating (100 = 100% disease control, 0 = no disease control) (Phytophthora infestans [1]; sprayed the day before inoculation, tested at 40 ppm (*)): 90; Test B disease rating (100 = 100% disease control, 0 = no disease control) (Plasmopara viticola; sprayed 24 h after inoculation, tested at 40 ppm (*)): 96; Test D disease rating (100 = 100% disease control, 0 = no disease control) (Phytophthora infestans [2]; sprayed 17 h after inoculation, tested at 40 ppm (*)): 67; Test E disease rating (100 = 100% disease control, 0 = no disease control) ([3]; sprayed the day before inoculation, 7 days at 20° C., tested at 40 ppm (*)): 0
COc1ccccc1C(C)N(C)C(=O)c1csc(C2CCN(C(=O)Cn3nc(C(F)(F)F)cc3C)CC2)n1 (stereo not drawn) [compound 255] |  |  |  |  | Test C disease rating (100 = 100% disease control, 0 = no disease control) (Phytophthora infestans [1]; [13]): 9; Test B disease rating (100 = 100% disease control, 0 = no disease control) (Plasmopara viticola; [14]): 25; Test D disease rating (100 = 100% disease control, 0 = no disease control) (Phytophthora infestans [2]; [15]): 0; Test E disease rating (100 = 100% disease control, 0 = no disease control) [3, 16]: 0
C[C@@H](NC(=O)c1csc(C2CCN(C(=O)Cc3cccc(Br)c3)CC2)n1)c1ccc(F)cc1 [compound 271] |  |  |  |  | Test C disease rating (100 = 100% disease control, 0 = no disease control) (Phytophthora infestans [1]; sprayed the day before inoculation, unmarked compounds (no asterisk, not 40 or 10 ppm)): 67; Test B disease rating (100 = 100% disease control, 0 = no disease control) (Plasmopara viticola; sprayed 24 h after inoculation, unmarked compounds (no asterisk, not 40 or 10 ppm)): 7; Test D disease rating (100 = 100% disease control, 0 = no disease control) (Phytophthora infestans [2]; sprayed 17 h after inoculation, unmarked compounds (no asterisk, not 40 or 10 ppm)): 0; Test E disease rating (100 = 100% disease control, 0 = no disease control) ([3]; sprayed the day before inoculation, 7 days at 20° C., unmarked compounds (no asterisk, not 40 or 10 ppm)): 0
